Measurements taken from patent US20190031780A1, “COMPOSITIONS AND METHODS FOR TARGETING CANCER STEM CELLS” (Siamab Therapeutics, Inc., priority 2016, published 2019).

Assays:
[1] = test system: STn+CD133+ OV90 cells; test: Cell viability of OV90 cells by MTT assay, chemotherapeutic vs antibody treatment (Example 6); format: cell-based, human; conditions: OV90 cells cultured 72 to 144 hours; normalized to vehicle only control
Procedure: STn+CD133+ OV90 and CSC sub-fractions were treated with different concentrations of paclitaxel (FIG. 2A), carboplatin (FIG. 2B), paclitaxel and carboplatin (FIG. 2C) or with unconjugated anti-STn antibody S3F (FIG. 2D). OV90 cells were cultured for 72 to 144 hours with the indicated chemotherapeutic drug or antibody concentrations and cell viability was analyzed by MTT assay. All values were normalized to a vehicle only control.

[2] = test system: OVCAR3 cells; test: OVCAR3 cell viability by MTT assay, chemotherapeutic vs antibody treatment (Example 15); format: cell-based, human; conditions: 72 hours, increasing doses, normalized to vehicle control
Procedure: The viability of OVCAR3 cells grown in culture was assessed following treatment with carboplatin, paclitaxel, carboplatin and paclitaxel, or S3F (FIG. 7). OVCAR3 cells were cultured for 72 hours with the indicated concentrations of paclitaxel, carboplatin, paclitaxel/carboplatin combination, or S3F. Relative cell viability was determined by measuring cellular metabolic activity using an MTT assay (EMD Millipore, Billerica, Mass.). For each experiment, all values were normalized to the vehicle control.

[3] = test system: OVCAR4 cells; test: Relative frequency of OVCAR4 STn/CD133 subpopulations after chemotherapy treatment (Example 13); format: cell-based, human; conditions: vs vehicle
Procedure: The potential for anti-STn antibodies to target stem cells after treatment of OVCAR4 cells with chemotherapy agents (paclitaxel and/or carboplatin) was evaluated. The relative frequency of the OVCAR4 subpopulations observed following treatment with either vehicle (shaded) or the indicated chemotherapy regimen is shown in FIG. 6.

[4] = test system: STn positive cells in OVCAR3 xenograft tissues; test: STn expression in xenograft tissues by flow cytometry at end of OVCAR3 in vivo study (Example 20); parameters: species or system NOD/SCID mice; conditions: 5 mg/kg weekly
Procedure: OVCAR3 cells were injected into NOD/SCID mice to generate tumor xenografts. Once a sufficient number of mice developed tumor volumes ranging from 200-500 mm^3, mice were randomized into 5 groups (about 6-7 mice/group) with essentially equivalent group mean tumor volumes. Each group received weekly treatments according to the following Table.
At the end of the study, xenograft tissues were processed to a single cell suspension and assessed for STn expression by flow cytometry. Around 80% of the cells in tissues from groups 1, 4, and 5 were STn positive, while the cells from group 2 mice were less than 40% STn positive (a reduction of about 50%) and cells from group 3 mice were around 10% STn positive (a reduction of greater than 85%).

[5] = test system: ovarian cancer tissue; test: Immunohistochemical staining of ovarian cancer tissue sections (Example 9); conditions: primary antibody; compared to normal IgG and no primary antibody
Text: Tissue sections from ovarian cancer tissue were subjected to immunohistochemical staining to identify cells expressing STn using S3F antibody as a primary antibody. Bound antibody was detected using a peroxidase-based secondary detection system.

| Molecule | cell viability (MTT assay) [1] | relative cell viability (metabolic activity, MTT assay) [2] | relative frequency of STn-negative subpopulations (STn-/CD133- and STn-/CD133+) [3] | relative frequency of STn-positive subpopulations (STn+/CD133- and STn+/CD133+) [3] | STn positive cells in xenograft tissues [4] | immunohistochemical staining of STn-expressing cells [5] |
| --- | --- | --- | --- | --- | --- | --- |
| N.N.O=C([O-])C1(C(=O)[O-])CCC1.[Pt+2] [carboplatin] | significantly reduced | decreased cell viability | decrease | increase | – | – |
| CC(=O)O[C@H]1C(=O)[C@@]2(C)[C@H]([C@H](OC(=O)c3ccccc3)[C@]3(O)C[C@H](OC(=O)[C@H](O)[C@@H](NC(=O)c4ccccc4)c4ccccc4)C(C)=C1C3(C)C)[C@]1(OC(C)=O)CO[C@@H]1C[C@@H]2O [paclitaxel] | significantly reduced | decreased cell viability | decrease | increase | – | – |
| SIA101: anti-STn IgG2a antibody: SIA101 variable domains (SEQ ID NO: 3, 4) with mouse IgG2a constant domains (antibody, V domains shown, not fully specified; mouse IgG2a constant domains; MOD_RES (9)..(9) Any amino acid; MOD_RES (111)..(111) Any amino acid) VH: QVQLQQSDXELVKPGASVKISCKASGYTFTDHAIHWVKQKPEQGLEWIGYFSPGNDDIKYNEKFRGKATLTADKSSSTAYMQLNSLSSDDSAVYFCKRSLSTPYWGQGTLXTVSA VL: DIVMTQSPSSLTVTAGEKVTMSCKSSQSLLNRGNHKNYLTWYRQKPGLPPKLLIYWASTRESGVPDRFTGSGSGTDFALTISSVQAEDLAVYYCQNDYTYPYTFGGGTKLEIKR | – | – | – | – | Around 80% | – |
| S3F: anti-STn IgG2a antibody: mouse 3F1 variable domains (SEQ ID NO: 1, 2) with mouse IgG2a constant domains; full chains SEQ ID NO: 7, 8 (antibody) heavy: QVQLQQSDAELVKPGASVKISCKASGYTFTDHAIHWVKQKPEQGLDWIGYISPGNGDIKYNEKFKDKVTLTADKSSSTACMHLNSLTSEDSAVYFCKRSLLALDYWGQGTTLTVSSAKTTAPSVYPLAPVCGDTTGSSVTLGCLVKGYFPEPVTLTWNSGSLSSGVHTFPAVLQSDLYTLSSSVTVTSSTWPSQSITCNVAHPASSTKVDKKIEPRGPTIKPCPPCKCPAPNLLGGPSVFIFPPKIKDVLMISLSPIVTCVVVDVSEDDPDVQISWFVNNVEVHTAQTQTHREDYNSTLRVVSALPIQHQDWMSGKEFKCKVNNKDLPAPIERTISKPKGSVRAPQVYVLPPPEEEMTKKQVTLTCMVTDFMPEDIYVEWTNNGKTELNYKNTEPVLDSDGSYFMYSKLRVEKKNWVERNSYSCSVVHEGLHNHHTTKSFSRTPGK light: DIVMTQSHKFMSTSVGDRVSITCKASQDVGTNIAWYQQKPGRSPKVLIYSASTRHTGVPDRFTGSGSGTDFTLTISNVQSEDLTDYFCQQYSSFPLTFGVGTKLELKRADAAPTVSIFPPSSEQLTSGGASVVCFLNNFYPKDINVKWKIDGSERQNGVLNSWTDQDSKDSTYSMSSTLTLTKDEYERHNSYTCEATHKTSTSPIVKSFNRNEC | no significant effect | no loss of viability | – | – | Around 80% | Numerous cells showed positive staining |
